Measured values published in patent publication US20260191194A1, “OXABICYCLOALKANE COMPOUNDS, PREPARATION METHOD THEREFOR, AND HERBICIDAL COMPOSITION AND USE THEREOF” (QINGDAO KINGAGROOT CHEMICAL COMPOUND CO., LTD., priority 2022, published 2026).

What was measured:
Assay type in all cases: in vivo
[1] = system: Arivela viscosa; assay: Activity test of compositions, soil sealing treatment (S); conditions: 21 days after treatment
Procedure: (§1) The required active ingredient B was purchased from a reagent company or synthesized by a known method. The technical materials were all dissolved with acetone solvents and diluted with an aqueous solution of 0.1% Tween 80 emulsifier, which were to be used immediately after dilution.
(§2) Weeds were cultivated in a controllable sunlight greenhouse at 20 to 30° C., in natural light, and with relative humidity of 57% to 72%. […] The test soil was quantitatively filled to 3/4 of the pot, and then watered from the bottom of the pot to completely wet the soil to saturation. The test weed seeds were accelerated to just germinate, and then evenly and quantitatively sowed on the soil surface, covered with 0.5-1 cm soil according to the sizes of the seeds, and ready for use 72 hours after sowing.
(§3) Each treatment was repeated 4 times. Four pots with 20 weed seeds sowed per pot were treated each time.
(§4) The well-sowed test materials were evenly placed on a platform with an area of 0.5 m^2, and foliage spraying was carried out by the 3WP-2000-type walking spray tower at a dosage of 450 kg/ha and a spray pressure of 0.3 MPa. After all the solution was sprayed, the air valve was closed, and 30 seconds later, the door of the spray tower was opened, and the nutritional bowl was taken out. Then the air valve was opened, and the spray tube was cleaned by spraying 50 ml of water.
(§5) A method for investigating absolute numbers was employed. Whole seedlings of survival weeds were cut off with a blade along the soil surface, and the fresh weight of the weeds was weighed using an analytical balance. For dead weeds, the fresh weight thereof was zero.
(§6) The investigation was performed 21 days after the treatment for once in total.
(§7) The theoretical fresh weight inhibition rate of a mixed combination of each treatment was calculated by the Gowing method (E0=X+Y−X*Y/100). […] An optimal ratio was determined according to the actual control effects, characteristics of herbicides, and balance of the formulation. In the formula, X represents the fresh weight inhibition rate of the active ingredient A in a dosage of P; Y represents the fresh weight inhibition rate of the active ingredient B in a dosage of Q. The statistical results are shown in Table 4.

[2] = system: Echinochloa glabrescens; assay: as above; conditions: B alone 75 g a.i./ha, 21 days after treatment
Procedure: as §1, §2, §3, §4, §5, §6, §7

[3] = system: Cyperus glomeratus; assay: as above; conditions: 21 days after treatment
Procedure: as §1, §2, §3, §4, §5, §6, §7

[4] = system: Echinochloa glabrescens; assay: Activity test of compositions, early post-emergence foliage spray (F-EP); conditions: B alone 150 g a.i./ha, 21 days after treatment
Procedure: as §1
(§8) Weeds were cultivated by a pot culture method. […] Weed seeds with plump and uniform grains were selected, soaked in lukewarm water at 25° C. for 6 hours, and accelerated to germinate in a 28° C. biochemical incubator (in darkness). The weed seeds that had just germinated were evenly placed on the surface of the soil and then covered with 0.5-1 cm soil according to the sizes of seeds.
(§9) The culture was carried out in a controllable sunlight greenhouse at 20 to 30° C., in natural light, and with relative humidity of 57% to 72%.
as §3
(§10) The agents were used once in total in the experiment. In the stage of 1-2 leaves, the weeds were thinned out to maintain 10 strains per treatment for later use.
as §4, with “well-cultured” for “well-sowed”, “water. The test materials were transferred to and routinely cultured in a greenhouse after the treatment.” for “water.”
as §5, §6, §7

[5] = system: Soliva anthemifolia; assay: as above; conditions: 21 days after treatment
Procedure: as §1, §8, §9, §3, §10
as §4, with “well-cultured” for “well-sowed”, “water. The test materials were transferred to and routinely cultured in a greenhouse after the treatment.” for “water.”
as §5, §6, §7

[6] = system: Echinochloa crus-galli var. austrojaponensis; assay: as above; conditions: 21 days after treatment; for pest or weed control at 300 g/ha: B alone 300 g a.i./ha
Procedure: as §1, §8, §9, §3, §10
as §4, with “well-cultured” for “well-sowed”, “water. The test materials were transferred to and routinely cultured in a greenhouse after the treatment.” for “water.”
as §5, §6, §7

[7] = system: Digitaria ischaemum; assay: Activity test of compositions, soil sealing treatment (S); conditions: B alone 300 g a.i./ha, 21 days after treatment
Description: as §1
The test soil was quantitatively filled to 3/4 of the pot, and then watered from the bottom of the pot to completely wet the soil to saturation. The test weed seeds were accelerated to just germinate, and then evenly and quantitatively sowed on the soil surface, covered with 0.5-1 cm soil according to the sizes of the seeds, and ready for use 72 hours after sowing.
as §3, §4, §5, §6, §7

[8] = system: Oxybasis glauca; assay: as above; conditions: B alone 15 g a.i./ha, 21 days after treatment
Procedure: as §1, §2, §3, §4, §5, §6, §7

[9] = system: Cyperus glomeratus; assay: Activity test of compositions, early post-emergence foliage spray (F-EP); conditions: B alone 900 g a.i./ha, 21 days after treatment
Procedure: as §1, §8, §9, §3, §10
as §4, with “well-cultured” for “well-sowed”, “water. The test materials were transferred to and routinely cultured in a greenhouse after the treatment.” for “water.”
as §5, §6, §7

[10] = Echinochloa crus-galli, 504 h, read-out: Control effect of B applied alone in a corresponding dose

## O=C(Nc1ccc(F)cc1F)c1cccnc1Oc1cccc(C(F)(F)F)c1 [diflufenican]
[1]; B alone 52.5 g a.i./ha
  Control effect of B applied alone in a corresponding dose: 65.8%

## CCN(C(=O)n1nnn(-c2ccccc2Cl)c1=O)C1CCCCC1 [fentrazamide]
[2]
  Control effect of B applied alone in a corresponding dose: 40.3

## oxadiargyl
[3]; B alone 45 g a.i./ha
  Control effect of B applied alone in a corresponding dose: 42.5%

## CCCCOC(=O)[C@@H](C)Oc1ccc(Oc2ccc(C#N)cc2F)cc1 [cyhalofop-butyl]
[4]
  Control effect of B applied alone in a corresponding dose: 46.6%

## Cc1cc(Cl)ccc1OCC(=O)OCCCCCC(C)C [MCPA-isooctyl]
[5]; B alone 300 g a.i./ha
  Control effect of B applied alone in a corresponding dose: 65%

## CSc1nc(NC(C)C)nc(NC(C)C)n1 [prometryn]
[6]; [10]
  pest or weed control at 300 g/ha: 41%

## CCNc1nc(Cl)nc(NC(C)C)n1 [atrazine]
[6]; Echinochloa crus-galli, 504 h, B alone 450 g a.i./ha, read-out: Control effect of B applied alone in a corresponding dose
  pest or weed control at 450 g/ha: 43.4%

## CC1=C(c2ccccc2)C(=O)N(C(C)(C)c2cc(Cl)cc(Cl)c2)CO1 [oxaziclomefone]
[3]; B alone 22.5 g a.i./ha
  Control effect of B applied alone in a corresponding dose: 58.5%

## CS(=O)(=O)c1ccc(C(=O)C2C(=O)CCCC2=O)c(Cl)c1COCC1CCCO1 (centres unmarked) [tefuryltrione]
[6]; B alone 15 g a.i./ha
  Control effect of B applied alone in a corresponding dose: 51.7%

## C#CCN(C)c1c(C#N)cnn1-c1nn2c(c1Cl)CCCC2 [pyraclonil]
[3]; B alone 45 g a.i./ha
  Control effect of B applied alone in a corresponding dose: 48.6%

## COc1cnc(OC)n2nc(NS(=O)(=O)c3c(OCC(F)F)cccc3C(F)(F)F)nc12 [penoxsulam]
[3]; B alone 7.5 g a.i./ha
  Control effect of B applied alone in a corresponding dose: 26.4%

## CC1(C)CON(Cc2ccc(Cl)cc2Cl)C1=O [bixlozone]
[1]; B alone 120 g a.i./ha
  Control effect of B applied alone in a corresponding dose: 74.5%

## CC(C)CCCCCOC(=O)COc1ccc(Cl)cc1Cl [2,4-D-isooctyl]
[5]; B alone 225 g a.i./ha
  Control effect of B applied alone in a corresponding dose: 61.4%

## CCOCN(C(=O)CCl)c1c(C)cccc1CC [acetochlor]
[7]
  Control effect of B applied alone in a corresponding dose: 41.3

## CSc1nnc(C(C)(C)C)c(=O)n1N [metribuzin]
[6]; Echinochloa crus-galli, 504 h, B alone 150 g a.i./ha, read-out: Control effect of B applied alone in a corresponding dose
  pest or weed control at 150 g/ha: 42.9%

## COc1c(Cl)ccc(-c2nc(C(=O)OCc3ccccc3)c(Cl)c(N)c2F)c1F [florpyrauxifenbenzyl, florpyrauxifen-benzyl]
[5]; B alone 7.5 g a.i./ha
  Control effect of B applied alone in a corresponding dose: 60.2%

## CC(C)Oc1cc(-n2nc(C(C)(C)C)oc2=O)c(Cl)cc1Cl [oxadiazon]
[3]; B alone 90 g a.i./ha
  Control effect of B applied alone in a corresponding dose: 32.4%

## CC(C)N(C(=O)SCC(Cl)=C(Cl)Cl)C(C)C [triallate]
[7]
  Control effect of B applied alone in a corresponding dose: 38.4

## Cc1cc(C)n(Cc2c(S(C)(=O)=O)ccc(C(=O)c3c(C)nn(C)c3OC(=O)c3cn(C)nc3C)c2Cl)n1 [tripyrasulfone]
[6]; B alone 60 g a.i./ha
  Control effect of B applied alone in a corresponding dose: 50.4%

## Cc1ccn2nc(S(=O)(=O)Nc3c(F)cccc3F)nc2n1 [flumetsulam]
[8]
  Control effect of B applied alone in a corresponding dose: 57.9

## CCC(=O)Nc1ccc(Cl)c(Cl)c1 [propanil]
[9]
  Control effect of B applied alone in a corresponding dose: 19.7

## CC[C@H](Oc1ccc(F)c(C(F)(F)F)c1)C(=O)NCc1ccccc1 [beflubutamid-M]
[1]; B alone 90 g a.i./ha
  Control effect of B applied alone in a corresponding dose: 55.2%

## CC(C)c1ccc(NC(=O)N(C)C)cc1 [isoproturon]
[6]; [10]
  pest or weed control at 300 g/ha: 31.3%
